Values quoted from earlier work, collected in PMC10894724 (Chemistry (Weinheim an der Bergstrasse, Germany), 2023).

System: P. falciparum Dd2 strain

CCCCCC(=O)N[C@H](C(=O)N[C@@H](CCS(C)(=O)=O)C(=O)N[C@@H](CC(C)C)C(=O)[C@@]1(C)CO1)C(C)C [carmaphycin B]
selectivity for asexual blood stage P. falciparum cells over human HepG2 cells: 3 fold
